Here are results for 27 compounds from patent US7125990B2, “Imidazolyl derivatives as corticotropin releasing factor inhibitors” (Bristol-Myers Squibb COmpany, priority 2001, dated 2006).

Like-named read-outs stand apart in the source and are kept apart here.

The target in this experiment is T1, CRF1 receptors (Homo sapiens, UniProt P34998).
T1 construct: endogenous in cells; host or cells: IMR-32 cells, transformed with 2.5 µM 5'-bromo-2'-deoxyuridine for 10 days; membrane preparation
T1 sequence (P34998 24-415): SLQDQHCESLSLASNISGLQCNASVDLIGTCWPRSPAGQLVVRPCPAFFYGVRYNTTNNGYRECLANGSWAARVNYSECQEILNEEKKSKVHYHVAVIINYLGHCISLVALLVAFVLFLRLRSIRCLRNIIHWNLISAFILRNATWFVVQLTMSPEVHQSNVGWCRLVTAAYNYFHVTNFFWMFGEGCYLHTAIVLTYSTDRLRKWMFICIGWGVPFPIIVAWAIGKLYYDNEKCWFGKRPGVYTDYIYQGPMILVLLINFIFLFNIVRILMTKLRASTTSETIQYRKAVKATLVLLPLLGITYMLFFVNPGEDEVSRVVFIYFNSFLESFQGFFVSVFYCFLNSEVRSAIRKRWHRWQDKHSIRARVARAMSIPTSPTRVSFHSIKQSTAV
Nature of the experiment: CRF1 receptor radioligand binding assay ([125I]-oCRF competition, IMR-32 cell membranes). The method in brief: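 Buffer: Tris pH 7.2 with MgCl2, BSA, Triton X-100, aprotinin, leupeptin; reaction stopped with ice-cold wash and filtered. Nonspecific binding set with 10 μM oCRF.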

Setting [1] is: IMR-32 cell membranes, [125I]-oCRF 100 pM, read-out: Ki (CRF-1R).

As to `Cc1cc(C)c(N2CCCn3c2nc(C(F)(F)F)c3CN(CCC(F)(F)F)Cc2cccc(F)c2)c(Cl)c1` [Example 133, [8-(2-Chloro-4,6-dimethyl-phenyl)-2-trifluoromethyl-5,6,7,8-tetrahydro-imidazo[1,2-a]pyrimidin-3-ylmethyl]-(3-fluoro-benzyl)-(3,3,3-trifluoro-propyl)-amine], the Ki under setting [1] was below 1000 nM.

For `CCc1nc2n(c1C(=O)N(CC1CC1)CC(F)(F)F)CCN2c1c(C)cc(Cl)cc1Cl` [Example 30, 7-(2,4-Dichloro-6-methyl-phenyl)-2-ethyl-6,7-dihydro-5H-imidazo[1,2-a]imidazole-3-carboxylic acid cyclopropylmethyl-(2,2,2-trifluoro-ethyl)-amide], the inhibition constant (Ki) under setting [1] is below 100 nM.

For the compound `Cc1cc(C)c(N2CCCn3c2nc(C(F)(F)F)c3CN(CCC(F)(F)F)Cc2ccc(Cl)cc2)c(C)c1` [Example 93, (4-Chloro-benzyl)-[2-trifluoromethyl-8-(2,4,6-trimethyl-phenyl)-5,6,7,8-tetrahydro-imidazo[1,2-a]pyrimidin-3-ylmethyl]-(3,3,3-trifluoro-propyl)-amine], the Ki under setting [1] is below 100 nM.

As for `Cc1cc(C)c(N2CCCn3c2nc(C(F)(F)F)c3CN2CCCCC2C)c(C)c1` (stereo not drawn) [Example 63, 3-(2-Methyl-piperidin-1-ylmethyl)-2-trifluoromethyl-8-(2,4,6-trimethyl-phenyl)-5,6,7,8-tetrahydro-imidazo[1,2-a]pyrimidine], the Ki under setting [1] was below 1000 nM.

Turning to `Cc1cc(C)c(N2CCCn3c2nc(C(F)(F)F)c3CN(CCC(F)(F)F)Cc2ccccc2)c(C)c1` [Example 86, Benzyl-[2-trifluoromethyl-8-(2,4,6-trimethyl-phenyl)-5,6,7,8-tetrahydro-imidazo[1,2-a]pyrimidin-3-ylmethyl]-(3,3,3-trifluoro-propyl)-amine], the Ki under setting [1] is below 1000 nM.

For the compound `CCc1nc2n(c1C(=O)N(CC)CCC1CC1)CCN2c1c(C)cc(C)cc1C` [Example 16, 2-Ethyl-7-(2,4,6-trimethyl-phenyl)-6,7-dihydro-5H-imidazo[1,2-a]imidazole-3-carboxylic acid (2-cyclopropyl-ethyl)-ethyl-amide], the inhibitory constant (Ki) under setting [1] was below 1000 nM.

`CCCN(CCC(F)(F)F)Cc1c(C(F)(F)F)nc2n(-c3c(C)cc(C)cc3C)c3ccccc3n12` [Example 157, Propyl-[2-trifluoromethyl-8-(2,4,6-trimethyl-phenyl)-8H-1,3a,8-triaza-cyclopenta[α]inden-3-ylmethyl]-(3,3,3-trifluoro-propyl)-amine]: the inhibition constant (Ki) under setting [1] is below 100 nM.

For the compound `Cc1cc(C)c(-n2c3ccccc3n3c(CN(CCC4CC4)CCC(F)(F)F)c(C(F)(F)F)nc23)c(C)c1` [Example 166, (2-Cyclopropyl-ethyl)-[2-trifluoromethyl-8-(2,4,6-trimethyl-phenyl)-8H-1,3a,8-triaza-cyclopenta[α]inden-3-ylmethyl]-(3,3,3-trifluoro-propyl)-amine], under setting [1], the Ki was below 1000 nM.

Consider `Cc1cc(C)c(N2CCCn3c2nc(C(F)(F)F)c3CN(CCc2ccccc2)CCC(F)(F)F)c(Cl)c1` [Example 118, [8-(2-Chloro-4,6-dimethyl-phenyl)-2-trifluoromethyl-5,6,7,8-tetrahydro-imidazo[1,2-a]pyrimidin-3-ylmethyl]-phenethyl-(3,3,3-trifluoro-propyl)-amine], for which the Ki under setting [1] was below 1000 nM.

As for `Cc1cc(C)c(N2CCCn3c2nc(C(F)(F)F)c3CN(CC2CCC2)CC(F)(F)F)c(Cl)c1` [Example 112, [8-(2-Chloro-4,6-dimethyl-phenyl)-2-trifluoromethyl-5,6,7,8-tetrahydro-imidazo[1,2-a]pyrimidin-3-ylmethyl]-cyclobutylmethyl-(2,2,2-trifluoro-ethyl)-amine], the inhibitory constant (Ki) under setting [1] was below 100 nM.

Turning to `CCCN(Cc1c(C(F)(F)F)nc2n1CCCN2c1c(C)cc(C)cc1C)CC1CCC1` [Example 77, Cyclobutylmethyl-propyl-[2-trifluoromethyl-8-(2,4,6-trimethyl-phenyl)-5,6,7,8-tetrahydro-imidazo[1,2-a]pyrimidin-3-ylmethyl]-amine], the inhibitory constant (Ki) under setting [1] is below 100 nM.

Turning to `Cc1cc(C)c(-n2c3ccccc3n3c(CN(CC4CCC4)CC(F)(F)F)c(C(F)(F)F)nc23)c(C)c1` [Example 156, Cyclobutylmethyl-(2,2,2-trifluoro-ethyl)-[2-trifluoromethyl-8-(2,4,6-trimethyl-phenyl)-8H-1,3a,8-triaza-cyclopenta[α]inden-3-ylmethyl]-amine], under setting [1], the Ki is below 100 nM.

Consider `CCC(CC)NCc1c(C)nc2n(-c3c(C)cc(C)cc3Cl)c3ncccc3n12` [Example 279, [8-(2-Chloro-4,6-dimethyl-phenyl)-2-methyl-8H-1,3a,7,8-tetraaza-cyclopenta[α]inden-3-ylmethyl]-(1-ethyl-propyl)-amine], for which, under setting [1], the Ki is below 10000 nM.

For the compound `CCCN(CCC)C(=O)c1c(CC)nc2n(-c3c(C)cc(C)cc3C)c(Cl)cn12` [Example 292, 6-Chloro-2-ethyl-7-(2,4,6-trimethylphenyl)-7H-imidazo[1,2-a]imidazole-3-carboxylic acid N,N-dipropylamide], the inhibitory constant (Ki) under setting [1] is below 100 nM.

Take `CCc1nc2n(c1C(=O)N(CC1CC1)CC(F)(F)F)CCN2c1ccc(C(C)C)cc1Br` [Example 34, 7-(2-Bromo-4-isopropyl-phenyl)-2-ethyl-6,7-dihydro-5H-imidazo[1,2-a]imidazole-3-carboxylic acid cyclopropylmethyl-(2,2,2-trifluoro-ethyl)-amide]: the inhibition constant (Ki) under setting [1] was below 1000 nM.

Turning to `CCCN(CCC)C(=O)c1c(CC)nc2n1CCN2c1c(C)cc(C)cc1C` [Example 11, 2-Ethyl-7-(2,4,6-trimethyl-phenyl)-6,7-dihydro-5H-imidazo[1,2-a]imidazole-3-carboxylic acid dipropyl-amide], the inhibition constant Ki under setting [1] was below 1000 nM.

Consider `CC(C)c1ccc(-n2c3ccccc3n3c(CN(CC4CCC4)CC(F)(F)F)c(C(F)(F)F)nc23)c(Br)c1` [Example 194, [8-(2-Bromo-4-isopropyl-phenyl)-2-trifluoromethyl-8H-1,3a,8-triaza-cyclopenta[α]inden-3-ylmethyl]-cyclobutylmethyl-(2,2,2-trifluoro-ethyl)-amine], for which, under setting [1], the Ki was below 1000 nM.

With `CCc1nc2n(c1C(=O)N(CCc1ccccc1)CCC(F)(F)F)CCN2c1c(C)cc(C)cc1C` [Example 23, 2-Ethyl-7-(2,4,6-trimethyl-phenyl)-6,7-dihydro-5H-imidazo[1,2-a]imidazole-3-carboxylic acid phenethyl-(3,3,3-trifluoro-propyl)-amide], the inhibition constant (Ki) under setting [1] is below 10000 nM.

With `CCCN(CCC)C(=O)c1c(CC)nc2n(-c3ccc(Cl)cc3Cl)c(Cl)cn12` [Example 287, 6-Chloro-2-ethyl-7-(2,4-dichlorophenyl)-7H-imidazo[1,2-a]imidazole-3-carboxylic acid N,N-dipropylamide], under setting [1], the Ki was below 10 nM.

Take `Cc1cc(C)c(-n2c3ccccc3n3c(CN(CC4CC4)CC(F)(F)C(F)(F)F)c(C(F)(F)F)nc23)c(C)c1` [Example 155, Cyclopropylmethyl-(2,2,3,3,3-pentafluoro-propyl)-[2-trifluoromethyl-8-(2,4,6-trimethyl-phenyl)-8H-1,3a,8-triaza-cyclopenta[α]inden-3-ylmethyl]-amine]: the inhibition constant (Ki) is below 100 nM.

As for `Cc1cc(C)c(N2CCCn3c2nc(C(F)(F)F)c3CN2CCCC2Cc2ccccc2)c(Cl)c1` (stereo not drawn) [Example 138, 3-(2-Benzyl-pyrrolidin-1-ylmethyl)-8-(2-chloro-4,6-dimethyl-phenyl)-2-trifluoromethyl-5,6,7,8-tetrahydro-imidazo[1,2-a]pyrimidine], the inhibition constant Ki under setting [1] was below 100 nM.

With `Cc1cc(C)c(-n2c(Cl)cn3c(CN4CC=CCC4)c(C(F)(F)F)nc23)c(C)c1` [Example 305, 2-Chloro-5-(3,6-dihydro-2H-pyridin-1-ylmethyl)-6-trifluoromethyl-1-(2,4,6-trimethyl-phenyl)-1H-imidazo[1,2-a]imidazole], under setting [1], the Ki is below 1000 nM.

In the case of `CCCN(CCC1CC1)Cc1c(C(F)(F)F)nc2n1CCCN2c1c(C)cc(C)cc1Cl` [Example 124, [8-(2-Chloro-4,6-dimethyl-phenyl)-2-trifluoromethyl-5,6,7,8-tetrahydro-imidazo[1,2-a]pyrimidin-3-ylmethyl]-(2-cyclopropyl-ethyl)-propyl-amine], the Ki under setting [1] is below 1000 nM.

Consider `CC(C)c1ccc(-n2c3ccccc3n3c(CN(CCC(F)(F)F)CC4CC4)c(C(F)(F)F)nc23)c(Br)c1` [Example 189, [8-(2-Bromo-4-isopropyl-phenyl)-2-trifluoromethyl-8H-1,3a,8-triaza-cyclopenta[α]inden-3-ylmethyl]-cyclopropylmethyl-(3,3,3-trifluoro-propyl)-amine], for which, under setting [1], the inhibition constant Ki is below 1000 nM.

In the case of `CC(C)c1ccc(-n2c3ccccc3n3c(CN(CC4CC4)CC4CC4)c(C(F)(F)F)nc23)c(Br)c1` [Example 187, [8-(2-Bromo-4-isopropyl-phenyl)-2-trifluoromethyl-8H-1,3a,8-triaza-cyclopenta[α]inden-3-ylmethyl]-bis-cyclopropylmethyl-amine], the inhibitory constant (Ki) under setting [1] is below 100 nM.

As for `Cc1cc(C)c(N2CCCn3c2nc(C(F)(F)F)c3CN(C)CCc2ccccc2)c(C)c1` [Example 66, Methyl-phenethyl-[2-trifluoromethyl-8-(2,4,6-trimethyl-phenyl)-5,6,7,8-tetrahydro-imidazo[1,2-a]pyrimidin-3-ylmethyl]-amine], under setting [1], the Ki was below 1000 nM.

In the case of `CCCN(CCC(F)(F)F)Cc1c(C(F)(F)F)nc2n(-c3c(C)cc(C)cc3C)c(Cl)cn12` [Example 321, [6-Chloro-2-trifluoromethyl-7-(2,4,6-trimethyl-phenyl)-7H-imidazo[1,2-a]imidazol-3-ylmethyl]-propyl-(3,3,3-trifluoro-propyl)-amine], the Ki under setting [1] was below 10 nM.

As usually defined, the Ki is the dissociation constant of the complex between target and ligand, obtained from inhibition or displacement.
